Source: PubChem BioAssay AID806 (SRMLSC, 2007)
Active and inactive are the calls of the source. How the calls were made is not given here.

System: virus-infected cells, CPE inhibition, dose response
Experiment: PubChem AID 806
Details: for EC90: measured here: EC90 CPE inhibition; for CC50: measured here: cytotoxicity, cell viability IC50

SMILES	EC50	EC90	CC50
COc1ccc(C(=O)C(CN2CCOCC2)c2ccccc2)cc1 (stereo unspecified)	> 60 µM (inactive)	> 60 µM	> 60 µM
Cc1sc2nc3c4ccccc4c(NCc4ccco4)nn3c(=O)c2c1C	> 60 µM (inactive)	> 60 µM	4.2 µM
Cc1cccc(-n2ncc3c(N4CCCc5ccccc54)ncnc32)c1	> 60 µM (inactive)	> 60 µM	> 60 µM
CCN(CC)C(=O)CN1CCN(c2ncccn2)CC1	> 60 µM (inactive)	> 60 µM	> 60 µM
N#CCCCSc1nnc(-c2ccccn2)o1	> 60 µM (inactive)	> 60 µM	> 60 µM
COc1ccc(NC(=O)C2CCCCN2S(=O)(=O)c2ccc(F)cc2)c(OC)c1 (stereo unspecified)	> 60 µM (inactive)	> 60 µM	> 60 µM
Cc1nc2nc(-c3cccnc3)[nH]n2c(=O)c1Cc1ccccc1	> 60 µM (inactive)	> 60 µM	> 60 µM
O=C(CSc1ccc2nnc(-c3ccccn3)n2n1)NCc1ccco1	> 60 µM (inactive)	> 60 µM	> 60 µM
COc1ccc(-n2ncc3c(N4CCc5ccccc54)ncnc32)cc1	> 60 µM (inactive)	> 60 µM	> 60 µM
COc1ccc(Cl)cc1NC(=O)CS(=O)(=O)c1cccc2nsnc12	> 60 µM (inactive)	> 60 µM	> 60 µM
O=C(c1cc(-c2ccc(Cl)cc2)n(-c2cc(Cl)ccc2Cl)n1)N1CCOCC1	> 60 µM (inactive)	> 60 µM	> 60 µM
CCOC(=O)CN(C(=O)Cn1nnc2ccccc21)C(C(=O)NCCOC)c1ccccc1 (stereo unspecified)	> 60 µM (inactive)	> 60 µM	> 60 µM
S=C(Nc1ccccc1)N1CCn2c1nc1ccccc12	> 60 µM (inactive)	> 60 µM	> 60 µM
COc1ccc(OC)c(Nc2ncnc3c2cnn3-c2ccccc2)c1	> 60 µM (inactive)	> 60 µM	> 60 µM
CCC(Oc1ccccc1)C(=O)Nc1ccc(-c2nnc(-c3ccco3)o2)cc1 (stereo unspecified)	> 60 µM (inactive)	> 60 µM	> 60 µM
CCSc1nnc([C@H](Cc2ccccc2)NC(=O)OC(C)(C)C)o1	> 60 µM (inactive)	> 60 µM	> 60 µM
C#CCSc1nnc(-c2ccc(C)cc2)o1	> 60 µM (inactive)	> 60 µM	> 60 µM
CC1CCCN(c2ccc(C(=O)NCc3cccs3)cn2)C1 (stereo unspecified)	> 60 µM (inactive)	> 60 µM	> 60 µM
CCN(CC)C(=O)CSc1nnc2sc3ccccc3n12	> 60 µM (inactive)	> 60 µM	> 60 µM
CCC1CCCCN1C(=O)Nc1cccc(NC(=O)N2CCCCC2CC)c1 (stereo unspecified)	> 60 µM (inactive)	> 60 µM	> 60 µM
COc1ccc(OC)c(-n2c(SCC(N)=O)nnc2-c2c[nH]c3ccccc23)c1	> 60 µM (inactive)	> 60 µM	> 60 µM
COc1ccc(OC)c(NC(=O)c2cc3ccccc3o2)c1	> 60 µM (inactive)	> 60 µM	> 60 µM
CCCCN(C(=O)Cn1nnc2ccccc21)C(C(=O)NCCOC)c1ccc(OC)cc1 (stereo unspecified)	> 60 µM (inactive)	> 60 µM	> 60 µM
NS(=O)(=O)c1ccc(CCNC(=O)C2CCCCN2S(=O)(=O)c2ccccc2)cc1 (stereo unspecified)	> 60 µM (inactive)	> 60 µM	> 60 µM
N#CCC(=O)N1CCn2c1nc1ccccc12	> 60 µM (inactive)	> 60 µM	> 60 µM

SMILES	EC50	EC90	CC50
COc1ccc(NC(=O)C2CC(=O)OC23CCCCC3)cc1 (stereo unspecified)	> 60 µM (inactive)	> 60 µM	> 60 µM
C=CCSc1nnc(-c2cccnc2)o1	–	> 60 µM	> 60 µM
CCc1c(C)nc2[nH]nc(-c3ccccc3C)n2c1=O	> 60 µM (inactive)	> 60 µM	> 60 µM
COc1ccc(C2NC(=O)NC3=C2CCc2ccccc23)cc1 (stereo unspecified)	3.6 µM	> 60 µM	> 60 µM
O=C(c1ccc(S(=O)(=O)N2CCOCC2)cc1)N1CCc2ccccc2C1	> 60 µM (inactive)	> 60 µM	> 60 µM
COc1ccccc1Cn1c(=O)c2ccccc2n2c(Sc3ncnc4sccc34)nnc12	> 60 µM (inactive)	> 60 µM	> 60 µM
Cc1ccc(-n2ncc3c(Nc4cccc(C(=O)O)c4)ncnc32)cc1	> 60 µM (inactive)	> 60 µM	> 60 µM
Cc1ccc(S(=O)(=O)N2CCCCC2C(=O)NCc2ccco2)cc1 (stereo unspecified)	> 60 µM (inactive)	> 60 µM	> 60 µM
CCCOc1ccc(C(=O)C(CN2CCOCC2)c2ccccc2)cc1 (stereo unspecified)	> 60 µM (inactive)	> 60 µM	> 60 µM
COc1ccc(-c2nnc3ccc(SCC(=O)NCc4ccco4)nn23)cc1OC	> 60 µM (inactive)	> 60 µM	> 60 µM
O=C(c1cc(-c2ccc(Cl)cc2)n(-c2ccc(Cl)cc2Cl)n1)N1CCOCC1	> 60 µM (inactive)	> 60 µM	> 60 µM
Cc1cccc(-n2ncc3c(N4CCc5ccccc54)ncnc32)c1	> 60 µM (inactive)	> 60 µM	> 60 µM
O=C(CSc1ccc2nnc(-c3ccccc3)n2n1)NCc1ccco1	> 60 µM (inactive)	> 60 µM	> 60 µM
CC(C)NC(=O)CN1CCN(c2ncccn2)CC1	> 60 µM (inactive)	> 60 µM	> 60 µM
O=C(Nc1ccncc1)c1cc2ccccc2o1	> 60 µM (inactive)	> 60 µM	> 60 µM
COc1ccccc1Nc1ncnc2c1cnn2-c1cccc(C)c1	> 60 µM (inactive)	> 60 µM	> 60 µM
O=C(NCc1ccccc1)c1ccc(S(=O)(=O)N2CCCC2)cc1	> 60 µM (inactive)	> 60 µM	> 60 µM
CN1C(=O)Cn2c1nc1ccccc12	> 60 µM (inactive)	> 60 µM	> 60 µM
CCOc1ncccc1C(=O)NCc1ccc(OC)cc1	> 60 µM (inactive)	> 60 µM	> 60 µM
COc1ccc(C)cc1NC(=O)c1cc2ccccc2o1	> 60 µM (inactive)	> 60 µM	> 60 µM
O=c1[nH]c2cccnc2n1Cc1ccccc1	> 60 µM (inactive)	> 60 µM	> 60 µM
CCCCCn1c(=O)c(C(=O)Nc2c(C)n(C)n(-c3ccccc3)c2=O)c(O)c2ccccc21	> 60 µM (inactive)	> 60 µM	> 60 µM
CCCCN(C(=O)Cn1nnc2ccccc21)C(C(=O)NCc1ccco1)c1ccncc1 (stereo unspecified)	> 60 µM (inactive)	> 60 µM	> 60 µM
COCc1cc(=O)n2c(-c3ccccc3OC)n[nH]c2n1	> 60 µM (inactive)	> 60 µM	> 60 µM
